Measurements from patent US9795140B2, “Molecules having pesticidal utility, and intermediates, compositions, and processes, related thereto” (priority 2015, dated 2017).

What was measured:
Format in all cases: in vivo
[1] = tested on: Yellow Fever Mosquito (Aedes aegypti, AEDSAE); test: Bioassay on Yellow Fever Mosquito (YFM) larvae, 96-well plate; conditions: about 1 day-old larvae, room temperature, 3 days, scored on mortality
Procedure, shortened: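 Each well was scored for mortality after 3 days at room temperature under a non-evaporative lid. Test molecules came from DMSO masters (4000 ppm stock) diluted with water/acetone 90:10 and dispensed into six replicate plates, which were then infested with roughly 1-day-old larvae in liver-powder water.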

[2] = tested on: Beet Armyworm (Spodoptera exigua, LAPHEG); test: Bioassay on Beet Armyworm (BAW), 128-well diet tray assay; conditions: 168 h, 50 μg/cm^2 on artificial diet, second instar larvae, 25° C., five to seven days, average of eight wells, read-out: BAW % Control (or Mortality) rating
Procedure, shortened: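 Artificial diet surface-treated with 50 μg/cm^2 test molecule in 90:10 acetone-water, dried, then infested with one to five second instar larvae per well. Held covered and vented at 25° C., 14:10 light-dark for five to seven days; percent mortality recorded per well and averaged over eight wells.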

[3] = tested on: Cabbage Looper (Trichoplusia ni, TRIPNI); test: Bioassay on Cabbage Looper (CL), 128-well diet tray assay; conditions: 168 h, 50 μg/cm^2 on artificial diet, second instar larvae, 25° C., five to seven days, average of eight wells, read-out: CL % Control (or Mortality) rating
Procedure, shortened: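 Second-instar T. ni larvae (one to five per well) were placed on artificial diet treated with 50 μg/cm^2 compound, applied in 90:10 acetone-water and dried. Trays were held five to seven days at 25 °C under 14:10 light-dark. Percent mortality per well was averaged over eight wells.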

Compound	YFM % Control (or Mortality) rating [1]	mortality at 50 µg/cm2 [2] [%]	mortality at 50 µg/cm2 [3] [%]
O=C(NCC(F)(F)F)c1cc(NC(=O)[C@H]2[C@H](c3ccc(Cl)c(C(F)F)c3)C2(Cl)Cl)ccc1Cl (relative stereo) [F129, 2-Chloro-5-(trans-2,2-dichloro-3-(4-chloro-3-(difluoromethyl)phenyl)cyclopropane-1-carboxamido)-N-(2,2,2-trifluoroethyl)benzamide]	A (80-100)	50 to 100	50 to 100
O=C(NCC(F)(F)F)c1cc(NC(=O)[C@H]2[C@H](c3cc(F)cc(C(F)F)c3)C2(Cl)Cl)ccc1Cl (relative stereo) [F130, 2-Chloro-5-(trans-2,2-dichloro-3-(3-(difluoromethyl)-5-fluorophenyl)cyclopropane-1-carboxamido)-N-(2,2,2-trifluoroethyl)benzamide]	A (80-100)	50 to 100	50 to 100
O=C(NCC(F)(F)F)c1cc(NC(=O)[C@H]2[C@H](c3ccc(F)c(C(F)F)c3)C2(Cl)Cl)ccc1Cl (relative stereo) [F131, 2-Chloro-5-(trans-2,2-dichloro-3-(3-(difluoromethyl)-4-fluorophenyl)cyclopropane-1-carboxamido)-N-(2,2,2-trifluoroethyl)benzamide]	A (80-100)	50 to 100	50 to 100
O=C(NCC(F)(F)F)c1cc(NC(=O)[C@H]2[C@H](c3ccc(C(F)F)c(Cl)c3)C2(Cl)Cl)ccc1Cl (relative stereo) [F132, 2-Chloro-5-(trans-2,2-dichloro-3-(3-chloro-4-(difluoromethyl)phenyl)cyclopropane-1-carboxamido)-N-(2,2,2-trifluoroethyl)benzamide]	A (80-100)	50 to 100	50 to 100
O=C(NCC(F)(F)F)c1cc(NC(=O)[C@H]2[C@H](c3ccc(C(F)F)c(F)c3)C2(Cl)Cl)ccc1Cl (relative stereo) [F133, 2-Chloro-5-(trans-2,2-dichloro-3-(4-(difluoromethyl)-3-fluorophenyl)cyclopropane-1-carboxamido)-N-(2,2,2-trifluoroethyl)benzamide]	A (80-100)	50 to 100	50 to 100
O=C(NCC(F)(F)F)c1cc(NC(=O)[C@H]2[C@H](c3cccc(C(F)F)c3)C2(Cl)Cl)ccc1Cl (relative stereo) [F134, 2-Chloro-5-(trans-2,2-dichloro-3-(3-(difluoromethyl)phenyl)cyclopropane-1-carboxamido)-N-(2,2,2-trifluoroethyl)benzamide]	A (80-100)	50 to 100	50 to 100
O=C(NCC(F)(F)F)c1cc(NC(=O)[C@H]2[C@H](c3ccc(C(F)F)cc3)C2(Cl)Cl)ccc1Cl (relative stereo) [F135, 2-Chloro-5-(trans-2,2-dichloro-3-(4-(difluoromethyl)phenyl)cyclopropane-1-carboxamido)-N-(2,2,2-trifluoroethyl)benzamide]	A (80-100)	0	50 to 100
O=C(NCC(F)(F)F)c1cc(NC(=O)[C@H]2[C@H](c3cc(Cl)cc(Cl)c3)C2(Br)Br)ccc1Cl (relative stereo) [PF1, trans-2-Chloro-5-(2,2-dibromo-3-(3,5-dichlorophenyl)cyclopropane-1-carboxamido)-N-(2,2,2-trifluoroethyl)benzamide]	D (No activity noticed in this bioassay)	50 to 100	50 to 100
O=C(NCCSCc1ccco1)c1cc(NC(=O)[C@H]2[C@H](c3cc(Cl)cc(Cl)c3)C2(Cl)Cl)ccc1Cl (relative stereo) [PF9, trans-2-Chloro-5-(2,2-dichloro-3-(3,5-dichlorophenyl)cyclopropane-1-carboxamido)-N-(2-((furan-2-ylmethyl)thio)ethyl)benzamide]	A (80-100)	50 to 100	50 to 100
COC(=O)C(CCSC)NC(=O)c1cc(NC(=O)[C@H]2[C@H](c3cc(Cl)cc(Cl)c3)C2(Cl)Cl)ccc1Cl (relative stereo) [PF10, trans-Methyl-2-(2-chloro-5-(2,2-dichloro-3-(3,5-dichlorophenyl)cyclopropane-1-carboxamido)benzamido)-4-(methylthio)butanoate]	B (More than 0-Less than 80)	50 to 100	50 to 100
O=C(NCc1ccc(-n2cncn2)cc1)c1cc(NC(=O)[C@H]2[C@H](c3cc(Cl)cc(Cl)c3)C2(Cl)Cl)ccc1Cl (relative stereo) [PF11, trans-N-(4-(1H-1,2,4-Triazol-1-yl)benzyl)-2-chloro-5-(2,2-dichloro-3-(3,5-dichlorophenyl)cyclopropane-1-carboxamido)benzamide]	A (80-100)	50 to 100	50 to 100
O=C(NCCc1nccs1)c1cc(NC(=O)[C@H]2[C@H](c3cc(Cl)cc(Cl)c3)C2(Cl)Cl)ccc1Cl (relative stereo) [PF12, trans-2-Chloro-5-(2,2-dichloro-3-(3,5-dichlorophenyl)cyclopropane-1-carboxamido)-N-(2-(thiazol-2-yl)ethyl)benzamide]	A (80-100)	50 to 100	50 to 100
O=C(NCCn1cccn1)c1cc(NC(=O)[C@H]2[C@H](c3cc(Cl)cc(Cl)c3)C2(Cl)Cl)ccc1Cl (relative stereo) [PF13, trans-N-(2-(1H-Pyrazol-1-yl)ethyl)-2-chloro-5-(2,2-dichloro-3-(3,5-dichlorophenyl)cyclopropane-1-carboxamido)benzamide]	A (80-100)	50 to 100	50 to 100
NS(=O)(=O)CCCNC(=O)c1cc(NC(=O)[C@H]2[C@H](c3cc(Cl)cc(Cl)c3)C2(Cl)Cl)ccc1Cl (relative stereo) [PF14, trans-2-Chloro-5-(2,2-dichloro-3-(3,5-dichlorophenyl)cyclopropane-1-carboxamido)-N-(3-sulfamoylpropyl)benzamide]	D (No activity noticed in this bioassay)	0 to 50	50 to 100
O=C(NCCc1csc2ccccc12)c1cc(NC(=O)[C@H]2[C@H](c3cc(Cl)cc(Cl)c3)C2(Cl)Cl)ccc1Cl (relative stereo) [PF15, trans-N-(2-(Benzo[b]thiophen-3-yl)ethyl)-2-chloro-5-(2,2-dichloro-3-(3,5-dichlorophenyl)cyclopropane-1-carboxamido)benzamide]	A (80-100)	50 to 100	50 to 100
C[C@H](CSCCC(F)(F)F)NC(=O)c1cc(NC(=O)C2C(c3cc(Cl)cc(Cl)c3)C2(Cl)Cl)ccc1Cl (stereo in doubt) [PF2, trans-2-Chloro-5-(2,2-dichloro-3-(3,5-dichlorophenyl)cyclopropane-1-carboxamido)-N—((R)-1-((3,3,3-trifluoropropyl)thio)propan-2-yl)benzamide]	A (80-100)	50 to 100	50 to 100
C[C@H](CS(=O)(=O)CCC(F)(F)F)NC(=O)c1cc(NC(=O)C2C(c3cc(Cl)cc(Cl)c3)C2(Cl)Cl)ccc1Cl (stereo in doubt) [PF4, trans-2-Chloro-5-(2,2-dichloro-3-(3,5-dichlorophenyl)cyclopropane-1-carboxamido)-N—((R)-1-((3,3,3-trifluoropropyl)sulfonyl)propan-2-yl)benzamide]	A (80-100)	50 to 100	50 to 100
C[C@H](C[S+]([O-])CCC(F)(F)F)NC(=O)c1cc(NC(=O)C2C(c3cc(Cl)cc(Cl)c3)C2(Cl)Cl)ccc1Cl (stereo in doubt) [PF5, trans-2-Chloro-5-(2,2-dichloro-3-(3,5-dichlorophenyl)cyclopropane-1-carboxamido)-N-((2R)-1-((3,3,3-trifluoropropyl)sulfinyl)propan-2-yl)benzamide]	A (80-100)	50 to 100	50 to 100
C[C@H](C[S+]([O-])CC(F)(F)F)NC(=O)c1cc(NC(=O)C2C(c3cc(Cl)cc(Cl)c3)C2(Cl)Cl)ccc1Cl (stereo in doubt) [PF7, trans-2-Chloro-5-(2,2-dichloro-3-(3,5-dichlorophenyl)cyclopropane-1-carboxamido)-N-((2R)-1-((2,2,2-trifluoroethyl)sulfinyl)propan-2-yl)benzamide]	A (80-100)	50 to 100	50 to 100
O=C(NCCC1CC1)c1cc(NC(=O)C2C(c3cc(Cl)cc(Cl)c3)C2(Cl)Cl)ccc1Cl (stereo not drawn) [F24, trans-N-2-Chloro-N-(2-cyclopropylethyl)-5-(2,2-dichloro-3-(3,5-dichlorophenyl)cyclopropane-1-carboxamido)benzamide]	A (80-100)	50 to 100	50 to 100
